Reference: US7970552B1, “Diagnostic system for selecting nutrition and pharmacological products for animals” (priority 2008, dated 2011)

Test system: cartilage cells of individual affected unhealthy dogs
Test: Cartilage cells of affected dogs cultured in vitro with 0 or 60 mg/l curcumin or andrographolide for 6 hours, microarray fold change in gene expression
Format: cell-based, German Shepherd dogs
Details: for Fold change of gene expression, mean: 60 mg/l vs 0, 6 hours; for Net effect of the NBC on fold change, mean: net of fold change in unhealthy dogs
Protocol: Total RNA of cells was extracted using phenol/guanidine HCI reagents (Trizol, Invitrogen). RNA quality integrity was analysed using the Agilent 2100 Bioanalyser (Agilent Technologies) of the sample. The samples determined to have no, or minimal, loss of integrity and thus were considered suitable for use in experiments. mRNA was amplified for each sample, starting with 500 ng total RNA using a commercially available kit (Ambion T7 MEGAscript high yield transcription kit, Ambion). The mRNA was quantified using a spectrophotometer. mRNA was directly reverse transcribed to cDNA from […] using the Superscript indirect cDNA labeling Core kit (Invitrogen, Milan, Italy).
Two micrograms of cDNA were labelled with Cyanine-3dCTP (Cy3) or Cyanine-5dCTP (Cy5) fluorochromes using the cDNA labeling purification module kit (Invitrogen, Milan, Italy). Samples were hybridised to a canine specific, whole genome 44k spot 60mer oligonucleotide (Agilent Technologies). The labelled cDNA was appropriately coupled and used for competitive hybridization on the same microarray at 42° C. for 16 h. Fluorescence incorporation was determined using a spectrophotometer. The relative intensity of labelled cDNA in was acquired with ScanArray LITE scanner (PerkinElmer Life Sciences, Inc).
Expression data were then exported into Excel 2007 and processed with SAM software; comparison between groups was achieved using paired student's t tests. […] Correction for multiple hypothesis testing was performed using the false discovery rate (FDR).
Searching within the nutrient data set for biologically active nutrients with anti-arthritic and anti-inflammatory properties identified curcumin and androgropholide as the appropriated compositions. The cartilage cells of individual affected unhealthy dogs were cultured in vitro with 0, or 60 mg/l of curcumin or androgropholide for 6 hours. At the end of the incubation, these cartilage cells from individual affected dogs were washed and used for RNA extraction. For the microarray analysis, co-hybridisation of the RNA from 0 and 60 mg/l was conducted, using the material and the methods described previously.
The table below reports the mean fold change in gene expression of two biologically active nutrients, namely curcumin and andrographolide. […] The dose to be added to the food or the nutrient composition is computed using literature data, which indicates a dose of 4 mg/kg body weight for either curcumin or andrographolide.

[1] = cartilage cells of affected dogs, 60 mg/l, 6 hours

C=C1CC[C@@H]2[C@](C)(CO)[C@H](O)CC[C@@]2(C)[C@@H]1C/C=C1/C(=O)OC[C@H]1O [Androgrpholide]
Fold change of gene expression, mean (gene ACTB): −1.0
Net effect of the NBC on fold change, mean (gene ACTB, 60 mg/l, 6 hours): 2.8
Fold change of gene expression, mean (gene ACTR3): 1.0
Net effect of the NBC on fold change, mean (gene ACTR3, 60 mg/l, 6 hours): 1.3
Fold change of gene expression, mean (gene ADK): 0.0
Net effect of the NBC on fold change, mean (gene ADK, 60 mg/l, 6 hours): 3.6
Fold change of gene expression, mean (gene ANKRD10): 0.0
Net effect of the NBC on fold change, mean (gene ANKRD10, 60 mg/l, 6 hours): 5.2
Fold change of gene expression, mean (gene CAV1): 0.0
Net effect of the NBC on fold change, mean (gene CAV1, 60 mg/l, 6 hours): 4.8
Fold change of gene expression, mean (gene CDH11): −1.0
Net effect of the NBC on fold change, mean (gene CDH11, 60 mg/l, 6 hours): 5.9
Fold change of gene expression, mean (gene COL3A1): −2.0
Net effect of the NBC on fold change, mean (gene COL3A1, 60 mg/l, 6 hours): 7.5
Fold change of gene expression, mean (gene COX1): 0.0
Net effect of the NBC on fold change, mean (gene COX1, 60 mg/l, 6 hours): 0.8
Fold change of gene expression, mean (gene COX2): 0.0
Net effect of the NBC on fold change, mean (gene COX2, 60 mg/l, 6 hours): 23.0
Fold change of gene expression, mean (gene IGFBP7): −2.0
Net effect of the NBC on fold change, mean (gene IGFBP7, 60 mg/l, 6 hours): 1.7
Fold change of gene expression, mean (gene IL2): −6.0
Net effect of the NBC on fold change, mean (gene IL2, 60 mg/l, 6 hours): −3.0
Fold change of gene expression, mean (gene MMP2): −5.0
Net effect of the NBC on fold change, mean (gene MMP2, 60 mg/l, 6 hours): 5.0
Fold change of gene expression, mean (gene NOS2): −6.0
Net effect of the NBC on fold change, mean (gene NOS2, 60 mg/l, 6 hours): −5.8
Fold change of gene expression, mean (gene PTGS-2): −5.0
Net effect of the NBC on fold change, mean (gene PTGS-2, 60 mg/l, 6 hours): −3.8
Fold change of gene expression, mean (gene SPARC): 0.0
Net effect of the NBC on fold change, mean (gene SPARC, 60 mg/l, 6 hours): 6.3
Fold change of gene expression, mean (gene STMN1): 0.0
Net effect of the NBC on fold change, mean (gene STMN1, 60 mg/l, 6 hours): 6.2
Fold change of gene expression, mean (gene TIMP1): 0.0
Net effect of the NBC on fold change, mean (gene TIMP1, 60 mg/l, 6 hours): 6.2
Fold change of gene expression, mean (gene TIMP2): 0.0
Net effect of the NBC on fold change, mean (gene TIMP2, 60 mg/l, 6 hours): 2.0
Fold change of gene expression, mean (gene TNF-a): −8.0
Net effect of the NBC on fold change, mean (gene TNF-a, 60 mg/l, 6 hours): 2.0
Fold change of gene expression, mean (gene TUBA): 0.0
Net effect of the NBC on fold change, mean (gene TUBA, 60 mg/l, 6 hours): 4.7
Fold change of gene expression, mean (gene TUBB): 0.0
Net effect of the NBC on fold change, mean (gene TUBB, 60 mg/l, 6 hours): 4.8

C=C1CC[C@@H]2[C@](C)(CO)[C@H](O)CC[C@@]2(C)[C@@H]1C/C=C1/C(=O)OC[C@H]1O [andrographolide]
Anti-inflammatory activity [1]: possesses an anti-inflammatory activity
Match with the regulation of the genes up- or down-regulated in affected unhealthy cartilage cells [1]: does not exactly match the regulation of all the genes

COc1cc(/C=C/C(=O)CC(=O)/C=C/c2ccc(O)c(OC)c2)ccc1O [curcumin]
Match with the regulation of the genes up- or down-regulated in affected unhealthy cartilage cells [1]: completely satisfies these requirements
